Experimental data taken from patent publication US20250353873A1, “COMPOUNDS AND METHODS FOR MODULATING APOE EXPRESSION” (Ionis Pharmaceuticals, Inc., priority 2024, published 2025).
Strand notation (5' to 3'): a small letter for the sugar, then the base; units joined by * are phosphorothioate-linked, units joined directly phosphodiester-linked; [ ] holds rarer units or linkages, { } end groups; capitals alone tell only the bases. [ms] = mesyl phosphoramidate linkage; e = 2'-O-(2-methoxyethyl) (MOE); k = constrained ethyl (cEt); [5mC] = 5-methylcytosine; d = 2'-deoxy (DNA)

Assays:
human APOE RNA [1] = assay: Potency (dose response, ED50) in APOE C57BL/6NTac-Apoeem7250 knock-in mice, 4 weeks (Example 14); format: in vivo; conditions: for ED 50 (μg) Cortex / ED 50 (μg) Spinal Cord: single ICV bolus, GraphPad Prism 10
Procedure: Modified oligonucleotides described above were tested in the APOE C57BL/6NTac-Apoeem7250 knock-in mouse model described above.
APOE C57BL/6NTac-Apoeem7250 knock-in mice were divided into groups of 3-4 mice each. A group of 3-4 mice received a single ICV bolus with PBS as a negative control.
Four weeks post treatment, mice were sacrificed, and RNA was extracted from cortical brain tissue and spinal cord for quantitative real-time RT-PCR analysis of RNA expression of […] using human primer probe set RTS3073 (described herein above). APOE RNA levels were normalized to mouse Ppia. Mouse Ppia was amplified using primer probe set m_cyclo24 (described herein above). Results are presented as percent human APOE RNA relative to the amount of APOE RNA in PBS treated animals, (% control). N.C. indicates values that were not calculated. Each experiment is identified in separate tables below.
The half maximal effective dose (ED50) of each modified oligonucleotide was calculated using GraphPad Prism 10 software (GraphPad Software, San Diego, CA).

human APOE RNA [2] = assay: Dose-dependent inhibition of human APOE RNA in HepG2 cells, electroporation, 50,000 cells per well, RT-PCR normalized to GAPDH (Example 4, Tables 8-10); format: cell-based; conditions: for APOE RNA (% UTC) 1,280 nM: 24-hour treatment, 1,280 nM; for APOE RNA (% UTC) 3,200 nM: 24-hour treatment, 3,200 nM; for APOE RNA (% UTC) 8,000 nM: 24-hour treatment, 8,000 nM; for APOE RNA (% UTC) 20,000 nM: 24-hour treatment, 20,000 nM
In short: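 HepG2 cells, 50,000 per well, electroporated with modified oligonucleotide at various concentrations. APOE RNA quantified by RT-PCR with human primer probe set RTS3073, normalized to GAPDH. Values are percent APOE RNA relative to untreated control cells.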

[3] = HepG2 cells, electroporation, 24-hour treatment, 5 nM, Table 8
[4] = HepG2 cells, electroporation, 24-hour treatment, 13 nM, Table 8
[5] = HepG2 cells, electroporation, 24-hour treatment, 33 nM, Table 8
[6] = HepG2 cells, electroporation, 24-hour treatment, 82 nM, Table 8
[7] = HepG2 cells, electroporation, 24-hour treatment, 205 nM, Table 8
[8] = HepG2 cells, electroporation, 24-hour treatment, 512 nM, Table 8
[9] = HepG2 cells, electroporation, Table 8
[10] = reduction of human APOE RNA, HepG2 cells, electroporation, 24-hour treatment, Table 8

| Substance | APOE RNA (% control) Cortex (human APOE RNA [1]; ICV dose 10 μg) | APOE RNA (% control) Cortex (human APOE RNA [1]; ICV dose 30 μg) | APOE RNA (% control) Cortex (human APOE RNA [1]; ICV dose 100 μg) | APOE RNA (% control) Cortex (human APOE RNA [1]; ICV dose 300 μg) | APOE RNA (% control) Cortex (human APOE RNA [1]; ICV dose 700 μg) | ED 50 (μg) Cortex (human APOE RNA [1]) | APOE RNA (% control) Spinal Cord (human APOE RNA [1]; ICV dose 10 μg) | APOE RNA (% control) Spinal Cord (human APOE RNA [1]; ICV dose 30 μg) | APOE RNA (% control) Spinal Cord (human APOE RNA [1]; ICV dose 100 μg) | APOE RNA (% UTC) 5 nM (human APOE RNA [2]; [3]) | APOE RNA (% UTC) 13 nM (human APOE RNA [2]; [4]) | APOE RNA (% UTC) 33 nM (human APOE RNA [2]; [5]) | APOE RNA (% UTC) 82 nM (human APOE RNA [2]; [6]) | APOE RNA (% UTC) 205 nM (human APOE RNA [2]; [7]) | APOE RNA (% UTC) 512 nM (human APOE RNA [2]; [8]) | APOE RNA (% UTC) 1,280 nM (human APOE RNA [2]; [9]) | APOE RNA (% UTC) 3,200 nM (human APOE RNA [2]; [9]) | APOE RNA (% UTC) 8,000 nM (human APOE RNA [2]; [9]) | APOE RNA (% UTC) 20,000 nM (human APOE RNA [2]; [9]) | IC50 (human APOE RNA [2]; [10]) | other results |
| --- | --- | --- | --- | --- | --- | --- | --- | --- | --- | --- | --- | --- | --- | --- | --- | --- | --- | --- | --- | --- | --- |
| 1693105: 6-10-4 MOE gapmer CTTGGTGAATCTTTATTAAA, linkages sosssszzzssssszssss (e[5mC]*eTeT*eG*eG*eT*dG[ms]dA[ms]dA[ms]dT*d[5mC]*dT*dT*dT*dA[ms]dT*eT*eA*eA*eA) [compound 1693105] | 100 % control | 85 % control | 77 % control | 59 % control | 48 % control | 573.3 µg | 71 % control | 71 % control | 47 % control | – | – | – | – | – | – | – | – | – | – | – | APOE RNA (% control) Spinal Cord (human APOE RNA [1]; ICV dose 300 μg): 49 % control; APOE RNA (% control) Spinal Cord (human APOE RNA [1]; ICV dose 700 μg): 61 % control; ED 50 (μg) Spinal Cord (human APOE RNA [1]): 892.8 µg |
| 1757575 (eA*e[5mC]eTeT*kG*kG*dT*dG[ms]dA[ms]dA[ms]dT*d[5mC]*dT*dT*dT*dA[ms]kT*eT*eA*eA; antisense) [Compound 1757575] | 100 % control | 82 % control | 88 % control | 51 % control | 30 % control | 337.5 µg | 82 % control | 48 % control | 40 % control | – | – | – | – | – | – | – | – | – | – | – | APOE RNA (% UTC) (human APOE RNA [2]; 5 nM, HepG2, electroporation, 16-hour treatment): 84 % UTC; APOE RNA (% UTC) (human APOE RNA [2]; 13 nM, HepG2, electroporation, 16-hour treatment): 80 % UTC; APOE RNA (% UTC) (human APOE RNA [2]; 33 nM, HepG2, electroporation, 16-hour treatment): 87 % UTC; APOE RNA (% UTC) (human APOE RNA [2]; 82 nM, HepG2, electroporation, 16-hour treatment): 78 % UTC; APOE RNA (% UTC) (human APOE RNA [2]; 205 nM, HepG2, electroporation, 16-hour treatment): 81 % UTC; APOE RNA (% UTC) (human APOE RNA [2]; 512 nM, HepG2, electroporation, 16-hour treatment): 51 % UTC; APOE RNA (% UTC) (human APOE RNA [2]; 1,280 nM, HepG2, electroporation, 16-hour treatment): 44 % UTC; APOE RNA (% UTC) (human APOE RNA [2]; 3,200 nM, HepG2, electroporation, 16-hour treatment): 37 % UTC; APOE RNA (% UTC) (human APOE RNA [2]; 8,000 nM, HepG2, electroporation, 16-hour treatment): 25 % UTC; APOE RNA (% UTC) (human APOE RNA [2]; 20,000 nM, HepG2, electroporation, 16-hour treatment): 15 % UTC; IC50 (human APOE RNA [2]; HepG2, electroporation, 16-hour treatment): 0.94 µM; APOE RNA (% control) Spinal Cord (human APOE RNA [1]; ICV dose 300 μg): 28 % control; APOE RNA (% control) Spinal Cord (human APOE RNA [1]; ICV dose 700 μg): 51 % control; ED 50 (μg) Spinal Cord (human APOE RNA [1]): 84.6 µg |
| 1778111: modified oligonucleotide complementary to human APOE RNA (eA*e[5mC]eTeTeG*kG*dT*dG[ms]dA[ms]dA*dT*d[5mC]*dT*dT*dT*dA[ms]eTeT*eA*eA; antisense) [compound 1778111] | – | – | – | – | – | – | – | – | – | 75 % UTC | 96 % UTC | 73 % UTC | 61 % UTC | 53 % UTC | 44 % UTC | 27 % UTC | 17 % UTC | 12 % UTC | 9 % UTC | 0.24 µM | – |
| 1778128: modified oligonucleotide complementary to human APOE RNA (eA*e[5mC]eTeTkGkG*dT*dG[ms]dA[ms]dA*dT*d[5mC]*dT*dT*dT*dA[ms]kTeT*eA*eA; antisense) [compound 1778128] | – | – | – | – | – | – | – | – | – | 81 % UTC | 83 % UTC | 66 % UTC | 53 % UTC | 39 % UTC | 28 % UTC | 22 % UTC | 9 % UTC | 8 % UTC | 5 % UTC | 0.1 µM | – |
| 1778130: modified oligonucleotide complementary to human APOE RNA (eA*e[5mC]eTeTeG*kG*dT*dG[ms]dA[ms]dA*dT*d[5mC]*dT*dT*dT*dA[ms]kTkT*eA*eA; antisense) [compound 1778130] | 123 % control | 100 % control | 69 % control | 74 % control | 37 % control | 502.4 µg | 88 % control | 35 % control | 27 % control | 100 % UTC | 106 % UTC | 93 % UTC | 75 % UTC | 61 % UTC | 44 % UTC | 26 % UTC | 19 % UTC | 10 % UTC | 6 % UTC | 0.4 µM | APOE RNA (% control) Spinal Cord (human APOE RNA [1]; ICV dose 300 μg): 22 % control; APOE RNA (% control) Spinal Cord (human APOE RNA [1]; ICV dose 700 μg): 32 % control; ED 50 (μg) Spinal Cord (human APOE RNA [1]): 35.9 µg |
| 1778131: modified oligonucleotide complementary to human APOE RNA (eA*e[5mC]eTeTeGkG*dT*dG[ms]dA[ms]dA*dT*d[5mC]*dT*dT*dT*dA[ms]kTkT*eA*eA; antisense) [compound 1778131] | 115 % control | 105 % control | 61 % control | 37 % control | 29 % control | 216.5 µg | 79 % control | 64 % control | 36 % control | 104 % UTC | 117 % UTC | 101 % UTC | 78 % UTC | 71 % UTC | 50 % UTC | 35 % UTC | 28 % UTC | 7 % UTC | 5 % UTC | 0.63 µM | APOE RNA (% control) Spinal Cord (human APOE RNA [1]; ICV dose 300 μg): 40 % control; APOE RNA (% control) Spinal Cord (human APOE RNA [1]; ICV dose 700 μg): 34 % control; ED 50 (μg) Spinal Cord (human APOE RNA [1]): 94.0 µg |
| 1785599: modified oligonucleotide complementary to human APOE RNA (k[5mC]*kT*kT*dG[ms]dG[ms]dT[ms]dG[ms]dA[ms]dA[ms]dT[ms]d[5mC]*dT*dT*dT*dA*dT*kT*kA*dA[ms]kA; antisense) [compound 1785599] | – | – | – | – | – | – | – | – | – | 116 % UTC | 116 % UTC | 100 % UTC | 87 % UTC | 65 % UTC | 48 % UTC | 43 % UTC | 21 % UTC | 9 % UTC | 2 % UTC | 0.64 µM | – |
| 1785617: modified oligonucleotide complementary to human APOE RNA (k[5mC]*dT[ms]dT[ms]kG*dG[ms]kT*dG[ms]dA[ms]dA[ms]dT[ms]d[5mC]*dT*dT*dT*dA*dT*kT*kA*dA[ms]kA; antisense) [compound 1785617] | – | – | – | – | – | – | – | – | – | 91 % UTC | 104 % UTC | 93 % UTC | 83 % UTC | 93 % UTC | 50 % UTC | 47 % UTC | 18 % UTC | 27 % UTC | 11 % UTC | 0.95 µM | – |
